Data from patent publication JP2014001205A, “動物の寄生虫防除剤” (Nissan Chemical Corp, priority 2012, dated 2014).

Experiments:
[1] = tested on: cat flea (Ctenocephalides felis) adults [ネコノミ(Ctenocephalides felis)成虫]; test: Efficacy test against cat flea (Test Example 1), glass container film contact; assay type: in vivo; settings: 96 h, 10μg/cm2, 5 adults (mixed sex), 25℃, 4 days, duplicate, read-out: efficacy (number of insects with abnormal behaviour due to compound / number released × 100)
[2] = tested on: American dog tick (Dermacentor variabilis) first nymphs [American dog tick(Dermacentor variabilis)第1若虫]; test: Efficacy test against American dog tick (Test Example 2), glass container film contact; assay type: in vivo; settings: 96 h, 10μg/cm2, 5 first nymphs (mixed sex), 25℃, 4 days, duplicate, read-out: efficacy (number with abnormal behaviour due to compound / number released × 100)

Row | SMILES | pest or weed control at 10 µg/cm2 [1] [%] | pest or weed control at 10 µg/cm2 [2] [%]
1 | CCN(C(=O)COC(C)=O)c1cn(-c2cccnc2)nc1Cl [1−082] | ≥ 80 | ≥ 80
2 | CSC[C@@H](C)C(=O)N(C)c1cn(-c2cccnc2)nc1Cl [1−039(S)−(−)] | ≥ 80 | ≥ 80
3 | CCc1nn(-c2cccnc2)cc1NC(=O)OC(C)(C)C [1−435] | ≥ 80 | ≥ 80
4 | CCN(C(=O)C=CSC)c1cn(-c2cccnc2)nc1Cl (single isomer, unassigned) [1−071] | ≥ 80 | ≥ 80
5 | CCN(C(=O)CSC)c1cn(-c2cccnc2)nc1Cl [1−079] | ≥ 80 | ≥ 80
6 | CCN(C(=O)CS(C)(=O)=O)c1cn(-c2cccnc2)nc1Cl [1−080] | ≥ 80 | ≥ 80
7 | CCCC(C)C(=O)N(CC)c1cn(-c2cccnc2)nc1Cl (stereo not drawn) [1−483] | ≥ 80 | ≥ 80
8 | CCN(C(=O)[C@H](C)CS(C)(=O)=O)c1cn(-c2cccnc2)nc1Cl [1−050(S)−(+)] | ≥ 80 | ≥ 80
9 | CCCSC(C)C(=O)N(CC)c1cn(-c2cccnc2)nc1Cl (stereo not drawn) [1−246] | ≥ 80 | ≥ 80
10 | CCN(C(=O)CCC[S+](C)[O-])c1cn(-c2cccnc2)nc1Cl (stereo not drawn) [1−527] | ≥ 80 | –
11 | CCN(C(=O)CSCC(OC)OC)c1cn(-c2cccnc2)nc1Cl [1−434] | ≥ 80 | –
12 | CC(C)NC(=S)Nc1cn(-c2cccnc2)nc1Cl [1−554] | ≥ 80 | –
